Experimental findings from US20240016763A1, “COENZYME Q10 MICROEMULSION, PREPARATION METHOD THEREFOR AND USE THEREOF” (ZHEJIANG NHU CO., LTD., priority 2021, published 2024) are described below.

Data set [1] can be described thus: Test of bioavailability: plasma concentration in rats after intragastric administration. The format is in vivo. The conditions noted are these: mean±SD, n=10. The procedure:
Preparation of coenzyme Q10 raw material sample solution: 0.1 g of coenzyme Q10 crystal is accurately weighed and dissolved in 100 mL of diethylene glycol monoethyl ether solution, as a raw material sample.
Microemulsion samples of Examples 1 to 6, coded as Sample 1, Sample 2, Sample 3, Sample 4, Sample 5 and Sample 6, are selected to conduct animal experiments.
Experimental conditions: the temperature of the laboratory feeding environment is 25±3° C., the relative humidity is 55% to 70%, the animals are free to drink water and eat food (deionized water and standard feed) every day, and they are fasted for 12 hours before the experiment but drink water freely.
Experimental animals and grouping: seventy 8-week-old healthy SPF-grade male SD rats, provided by Hubei Experimental Animal Research Center, weighing from 220 g to 230 g.
The rats are operated according to the international experimental guidelines for experimental animals, and every 10 rats fasted for 12 hours are divided into one group by a completely random design, totally seven groups.
Oral administration, sample collection and treatment: the rats are intragastrically administered with the same dose (15 mg/kg: coenzyme Q10 content) of microemulsion samples 1 to 6 and raw material samples, respectively. After administration, plasma is collected at 5 minutes, 15 minutes, 30 minutes, 1 hour, 3 hours, 6 hours, 10 hours and 15 hours, respectively, and put into anticoagulant centrifuge tubes containing heparin, mixed uniformly and then centrifuged to separate the plasma. After the treatment, the plasma concentration is detected by HPLC.
According to the results of the plasma concentration, statistical fitting analysis is carried out by using statistical analysis software, to calculate the plasma concentration. The results is expressed as mean value±standard deviation.

The nature of data set [2]: Test of particle size DV(90) (laser particle size distribution). The format is physicochemical. The note with it: sample diluted 1:20 with distilled water, 25° C. The procedure:
The microemulsion sample is diluted with distilled water at a ratio of 1:20 and gently shaken to form a clear microemulsion. Then, the particle size distribution of the emulsion is measured by MASTERSIZER 3000 laser particle size distribution instrument (purchased from Malvern Company, UK) at 25° C.

A short description of data set [3]: Test of stability: irradiation at 4500 Lx light intensity, 15 days. The format is physicochemical. The note with it: 4500 Lx illumination. The source says:
(§1) The coenzyme Q10 microemulsion is quickly poured into a transparency meter barrel, and an inspector observes vertically downward from the barrel mouth of the transparency meter, and slowly releases the microemulsion just to a height of the microemulsion where the type at the bottom can be clearly recognized. The height of the microemulsion is the transparency of the coenzyme Q10 microemulsion, which is generally more than 30 cm to be transparent. The measurement is repeated for 3 times, and the results are averaged.
(§2) Microemulsion samples and coenzyme Q10 raw material are placed in the conditions of irradiation at 4500 Lx light intensity, oxygen filling (25° C.) and 60° C. (incubator) for 15 days, respectively, for experiments. In these experiments, samples are taken on day 0, day 5, day 10 and day 15, respectively, and the content of coenzyme Q10 is determined by HPLC, to investigate the effects of light, oxygen and temperature on the labeled content (%) of coenzyme Q10 and the appearance.
(§3) Refer to the test method of coenzyme Q10 content in Chinese Pharmacopoeia (2015 edition).

Data set [4] is described as follows: Test of stability: 60° C. (incubator), 15 days. The format is physicochemical.
From the text: as §1, §2, §3

A short description of data set [5]: Test of stability: oxygen filling (25° C.), 15 days. The format is physicochemical.
From the text: as §1, §2, §3

For `COC1=C(OC)C(=O)C(C/C=C(\C)CC/C=C(\C)CC/C=C(\C)CC/C=C(\C)CC/C=C(\C)CC/C=C(\C)CC/C=C(\C)CC/C=C(\C)CC/C=C(\C)CCC=C(C)C)=C(C)C1=O` [coenzyme Q10 raw material, coenzyme Q10], the average plasma concentration turned out to be 12.1 µg/L in data set [1] (intragastric 15 mg/kg coenzyme Q10, 5 minutes); 21.3 µg/L in data set [1] (intragastric 15 mg/kg coenzyme Q10, 15 minutes); 49.3 µg/L in data set [1] (intragastric 15 mg/kg coenzyme Q10, 30 minutes); 93.0 µg/L in data set [1] (intragastric 15 mg/kg coenzyme Q10, 1 hour); 110.4 µg/L in data set [1] (intragastric 15 mg/kg coenzyme Q10, 3 hours); 83.3 µg/L in data set [1] (intragastric 15 mg/kg coenzyme Q10, 6 hours). The average plasma concentration amounted to 37.6 µg/L in data set [1] (intragastric 15 mg/kg coenzyme Q10, 10 hours) and 11.5 µg/L in data set [1] (intragastric 15 mg/kg coenzyme Q10, 15 hours). Besides, the “DV(90)” value in data set [2] is listed as 75000 nm. Also, the “Labeled content of coenzyme Q10” value in data set [3] (0 day) worked out at 99%; in data set [3] (5 days) it was 95%; in data set [3] (10 days) it was 93%; in data set [3] (15 days) it was 88%; in data set [4] (0 day) it was 99%; in data set [4] (5 days), 97%. In addition, the “Labeled content of coenzyme Q10” value in data set [4] (10 days) is 95%; in data set [4] (15 days), 92%; in data set [5] (0 day), 99%; in data set [5] (5 days), 97%; in data set [5] (10 days), 95%; in data set [5] (15 days), 90%.
